# Laboratory results taken from patent publication US12036222B2, “Methods of treating cancers overexpressing CARM1 with EZH2 inhibitors and a PARP inhibitor” (The Wistar Institut of Anatomy and Biology, priority 2018, dated 2024).
# “Also recorded” adds a separate entry of the source.
# System: A1847 parental and CARM1 knockout cells
# Assay: Epigenetic targeting small molecule set screen (14-day colony formation)
# Type: cell-based, human
# Conditions: 14 days, normalized to vehicle
# Method: FIG. 26 illustrates that CARM1-expressing cells are selectively sensitized to EZH2 inhibitors. Equal number of parental control or CARM1 knockout […] cells were plated and treated with each of the 23 individual epigenetic inhibitors for 14 days. The media with the inhibitors was refreshed every 3 days. Cell growth was quantified as integrated density using NIH Image J software. Quantification of the average integrated density graphed as a scatter plot. The X-axis indicates the relative growth of treated CARM1 high parental […] cells compared with DMSO vehicle controls. Y-axis indicates the relative growth of treated CARM1 knockout […] cells compared with DMSO vehicle controls. n=4; and error bars represents SEM. FIG. 27 illustrates a table of EZH2 inhibitors that are selective against CARM1 expression. CARM1-high parental controls and CARM1 knockout […] cells were treated with the indicated concentration of the small molecules in a 14-day colony formation assay. Integrated density for each well was calculated using NIH Image J software. The relative growth of the indicated cells was determined by normalizing to the vehicle control treated cells. n=4 and p-value was calculated using a two-tailed t-test. […] parental and CARM1 knockout cells were plated in 24-well plates and treated with 24 epigenetic compounds. Cell medium was changed every three days with appropriate drug doses for 14 days or until control wells became confluent. Colonies were washed twice with PBS and fixed with 10% methanol and 10% acetic acid in distilled water. Fixed colonies were stained with 0.005% crystal violet. Integrated density was measured using NIH ImageJ software as a surrogate for cell growth.
row,Structure (SMILES),selective growth suppression of CARM1-expressing vs CARM1 KO cells
1,"CCCc1cc(C)[nH]c(=O)c1CNC(=O)c1cc(-c2ccc(N3CCN(C(C)C)CC3)nc2)cc2c1cnn2C(C)C [UNC1999, 1-isopropyl-6-(6-(4-isopropylpiperazin-1-yl)pyridin-3-yl)-N-((6-methyl-2-oxo-4-propyl-1,2-dihydropyridin-3-yl)methyl)-1H-indazole-4-carboxamide]",showed selectivity against CARM1-expressing cells; also recorded: selectively sensitive
2,CC(=O)Nc1ccc(C(=O)Nc2ccccc2N)cc1 [CI994],equally effective in suppressing the growth of both CARM-expressing and KO cells; also recorded: showed no difference between parental and CARM1 knockout cells
